Test results: patent US4861778A, “2,3-dihydrophthalazine-1,4-diones” (priority 1986, dated 1989)
Where two headings read alike, the source gives them in different places.

System: serum cholesterol and serum triglyceride
Test: Hypolipidemic activity of 2,3-dihydrophthalazine-1,4-diones in normal male mice (Example 11, Table II)
Format: in vivo, CF1 male mice
Settings: Mus musculus, ip
Protocol: Hypolipidemic Activity of 2,3-Dihydrophthalazine-1,4-Diones in Normal Male Mice
Each of the prepared compounds was administered intraperitoneally, in a dosage of 20 milligrams per kilogram of body weight per day, to a group of six CF1 male mice, each weighing approximately 25 grams, for 16 days. On Days 9 and 16 blood was obtained from each of the tested mice by tail vein bleeding. The blood serum so obtained was separated by centrifugation for three minutes. […] Serum triglyceride levels were obtained on Day 16 by use of the Bio-Dynamics/bm Triglyceride Kit.
In addition to the above-described treated mice, an untreated control group of six mice were similarly tested on Days 9 and 16 to determine their serum cholesterol and serum triglyceride blood levels.

[1] = 216 h, CF1 male mice, 20 mg/kg/day intraperitoneally, Day 9, read-out: Serum Cholesterol Day 9, percent control ± standard deviation
[2] = 384 h, CF1 male mice, 20 mg/kg/day intraperitoneally, Day 16, read-out: Serum Cholesterol Day 16, percent control ± standard deviation
[3] = 384 h, CF1 male mice, 20 mg/kg/day intraperitoneally, Day 16, read-out: Serum Triglyceride Day 16, percent control ± standard deviation

Compound | response vs control in vivo at 20 mg/kg/day [1] [%] | response vs control in vivo at 20 mg/kg/day [2] [%] | response vs control in vivo at 20 mg/kg/day [3] [%] | response vs control in vivo at 20 mg/kg/day (216 h, read-out: Serum Cholesterol Day 9, percent control ± standard deviation) [%] | response vs control in vivo at 20 mg/kg/day (384 h, read-out: Serum Cholesterol Day 16, percent control ± standard deviation) [%] | response vs control in vivo at 20 mg/kg/day (384 h, read-out: Serum Triglyceride Day 16, percent control ± standard deviation) [%]
COc1nn(C)c(=O)c2ccccc12 [Compound 3, 2-Methyl-4-Methoxyphthalazine-1(2H)-One] | 84 ± 6 | 81 ± 5 | 64 ± 5 | – | – | –
O=c1c2ccccc2c(O)nn1-c1cccc(Cl)c1 [Compound 23] | 73 ± 4 | 62 ± 3 | 69 ± 5 | – | – | –
COc1ccc2c(=O)[nH]nc(O)c2c1 [Compound 17] | 77 ± 5 | 76 ± 4 | 69 ± 3 | – | – | –
COc1cccc2c(=O)[nH]nc(O)c12 [Compound 16] | 82 ± 5 | 78 ± 3 | 81 ± 4 | – | – | –
CCCCOc1nn(CCCC)c(=O)c2ccccc12 [Compound 9] | 65 ± 4 | 61 ± 3 | 66 ± 3 | – | – | –
Cc1cccc(-n2nc(O)c3ccccc3c2=O)c1 [Compound 26] | 87 ± 6 | 74 ± 4 | 65 ± 3 | – | – | –
Cc1ccc(-n2nc(O)c3ccccc3c2=O)cc1 [Compound 27] | 89 ± 5 | 73 ± 6 | 57 ± 2 | – | – | –
CC(=O)CCn1[nH]c(=O)c2ccccc2c1=O [Compound 20, 2-(3'-Oxobutyl)-2,3-Dihydrophthalazine-1,4-Dione] | 72 ± 6 | 59 ± 3 | 70 ± 7 | – | – | –
Cc1ccc2c(=O)[nH][nH]c(=O)c2c1 [Compound 15, 6-methyl-2,3-dihydrophthalazine-1,4-dione] | 66 ± 8 | 55 ± 4 | 54 ± 4 | – | – | –
CCOC(=O)Cn1[nH]c(=O)c2ccccc2c1=O [Compound 19, 2-(1'-Carbethoxymethyl)-2,3-Dihydrophthalazine-1,4-Dione] | 78 ± 6 | 69 ± 5 | 73 ± 4 | – | – | –
Cc1cccc2c(=O)[nH]nc(O)c12 [Compound 14] | 80 ± 4 | 75 ± 3 | 73 ± 3 | – | – | –
O=c1c2ccccc2c(O)nn1-c1ccccc1Cl [Compound 22] | 72 ± 5 | 67 ± 3 | 68 ± 4 | – | – | –
O=c1[nH]n(-c2ccccc2)c(=O)c2ccccc12 [Compound 21, 2-Phenyl-2,3-Dihydrophthalazine-1,4-Dione] | – | – | – | 59 ± 5 | 58 ± 4 | 65 ± 3
Cn1nc(O)c2ccccc2c1=O [Compound 2] | 72 ± 5 | 77 ± 3 | 66 ± 4 | – | – | –
CCCn1[nH]c(=O)c2ccccc2c1=O [Compound 6, 2-n-propyl-2,3-dihydrophthalazine-1,4-dione] | 77 ± 6 | 68 ± 5 | 62 ± 2 | – | – | –
CCCCCn1nc(O)c2ccccc2c1=O [Compound 10] | 74 ± 3 | 71 ± 5 | 55 ± 4 | – | – | –
CCCOc1nn(CCC)c(=O)c2ccccc12 [Compound 7] | 68 ± 3 | 69 ± 5 | 69 ± 2 | – | – | –
CCn1[nH]c(=O)c2ccccc2c1=O [Compound 4, 2-Ethyl-2,3-Dihydrophthalazine-1,4-Dione] | 71 ± 7 | 58 ± 5 | 59 ± 4 | – | – | –
O=c1[nH][nH]c(=O)c2c(Cl)cccc12 [Compound 12, 5-Chloro-2,3-Dihydrophthalazine-1,4-Dione] | 72 ± 5 | 69 ± 4 | 86 ± 5 | – | – | –
Cc1ccccc1-n1nc(O)c2ccccc2c1=O [Compound 25] | 82 ± 7 | 66 ± 5 | 76 ± 6 | – | – | –
O=C(O)CCn1[nH]c(=O)c2ccccc2c1=O [Compound 18, 2-(2'-Carboxyethyl)-2,3-Dihydrophthalazine-1,4-Dione] | 54 ± 6 | 34 ± 3 | 60 ± 4 | – | – | –
CCOc1nn(CC)c(=O)c2ccccc12 [Compound 5] | 77 ± 5 | 76 ± 4 | 57 ± 3 | – | – | –
O=c1[nH]nc(O)c2cc(Cl)ccc12 [Compound 13] | 72 ± 4 | 64 ± 5 | 65 ± 4 | – | – | –
CCCCn1[nH]c(=O)c2ccccc2c1=O [Compound 8, 2-n-butyl-2,3-dihydrophthalazine-1,4-dione] | 59 ± 2 | 58 ± 3 | 73 ± 4 | – | – | –
CCCCCOc1nn(CCCCC)c(=O)c2ccccc12 [Compound 11] | 86 ± 6 | 63 ± 4 | 59 ± 3 | – | – | –
O=c1[nH]n(-c2ccc(Cl)cc2)c(=O)c2ccccc12 [Compound 24, 2-(4'-chlorophenyl)-2,3-dihydrophthalazine-1,4-dione] | 60 ± 3 | 54 ± 4 | 59 ± 5 | – | – | –
